Assays:
Human M4 = target: T1, Human M4 (Homo sapiens, UniProt P08173); assay: mAChR M4 cell-based functional assay (calcium flux, potentiation of EC20 acetylcholine response); design: Emax: dose or concentration left out as unconfirmed; conditions: for Emax: CHO-K1
T1 sequence (P08173 1-479): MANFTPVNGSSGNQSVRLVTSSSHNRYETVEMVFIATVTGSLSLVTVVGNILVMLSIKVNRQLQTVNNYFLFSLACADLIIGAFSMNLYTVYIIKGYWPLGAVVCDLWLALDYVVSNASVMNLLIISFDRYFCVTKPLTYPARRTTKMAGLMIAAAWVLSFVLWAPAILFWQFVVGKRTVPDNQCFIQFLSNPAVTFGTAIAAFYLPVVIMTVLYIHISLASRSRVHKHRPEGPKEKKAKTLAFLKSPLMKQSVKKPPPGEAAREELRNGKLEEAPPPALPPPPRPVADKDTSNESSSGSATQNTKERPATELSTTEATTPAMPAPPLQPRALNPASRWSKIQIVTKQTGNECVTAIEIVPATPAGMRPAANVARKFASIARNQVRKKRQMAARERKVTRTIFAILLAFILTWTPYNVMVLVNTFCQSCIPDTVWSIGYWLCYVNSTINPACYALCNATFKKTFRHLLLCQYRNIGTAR

[1] = similar profiles to known antipsychotic drugs, without causing catalepsy; cited from earlier work
[2] = Alzheimer's disease patients; delusions, suspiciousness, vocal outbursts, hallucinations; cited from earlier work
[3] = human, in vivo; cited from earlier work

Row | Structure (SMILES) | EC50 (Human M4) [nM] | Emax (Human M4) [%] | activity in animal models [1] | effect on psychotic behavioral symptoms [2] | elevated liver transaminases (hepatotoxicity), share of patients [3]
1 | Cc1nnc2sc3c(C4CCCCC4)ncnc3c2c1C [Compound 16, 8-cyclohexyl-3,4-dimethylpyrimido[4′,5′:4,5]thieno[2,3-c]pyridazine] | 52 | 72.6 |  |  | 
2 | C/C=C/c1ncnc2c1sc1nc(C)cc(C)c12 [Compound 2, (E)-7,9-dimethyl-4-(prop-1-en-1-yl)pyrido[3′,2′:4,5]thieno[3,2-d]pyrimidine; 2,2,2-trifluoroacetic acid] | > 10000 | 55.3 |  |  | 
3 | Cc1nnc2sc3c(C4CCOCC4)ncnc3c2c1C [Compound 18, 3,4-dimethyl-8-(tetrahydro-2H-pyran-4-yl)pyrimido[4′,5′:4,5]thieno[2,3-c]pyridazine] |  | 74.6 |  |  | 
4 | Cc1cc(C)c2c(n1)sc1c(C3CCNCC3)ncnc12 [Compound 10, 7,9-dimethyl-4-(piperidin-4-yl)pyrido[3′,2′:4,5]thieno[3,2-d]pyrimidine] | 6100 | 98.8 |  |  | 
5 | Cc1cc(C)c2c(n1)sc1c(C3CC3)ncnc12 [Compound 5, 4-cyclopropyl-7,9-dimethylpyrido[3′,2′:4,5]thieno[3,2-d]pyrimidine] | 3900 | 61.5 |  |  | 
6 | CCc1ncnc2c1sc1nc(C)cc(C)c12 [Compound 6, 4-ethyl-7,9-dimethylpyrido[3′,2′:4,5]thieno[3,2-d]pyrimidine] | 2900 | 59.1 |  |  | 
7 | Cc1nnc2sc3c(C4CCN(C(=O)C5CC5)CC4)ncnc3c2c1C [Compound 26, cyclopropyl(4-(3,4-dimethylpyrimido[4′,5′:4,5]thieno[2,3-c]pyridazin-8-yl)piperidin-1-yl)methanone] | 410 | 36.5 |  |  | 
8 | Cc1cc(C)c2c(n1)sc1c(C3CCCCC3)ncnc12 [Compound 9, 4-cyclohexyl-7,9-dimethylpyrido[3′,2′:4,5]thieno[3,2-d]pyrimidine] | 6800 | 70.8 |  |  | 
9 | Cc1cc(C)c2c(n1)sc1c(C3CCCC3)ncnc12 [Compound 8, 4-cyclopentyl-7,9-dimethylpyrido[3′,2′:4,5]thieno[3,2-d]pyrimidine] | > 10000 | 70.9 |  |  | 
10 | CCCCCCOc1nsnc1C1=CCCN(C)C1 [xanomeline] |  |  | active in animal models | reduce psychotic behavioral symptoms | 
11 | Nc1c2c(nc3ccccc13)CCCC2 [tacrine] |  |  |  |  | about 30%
12 | Cc1cc(C)c2c(n1)sc1c(-c3nccs3)ncnc12 [Compound 3, 7,9-dimethyl-4-(thiazol-2-yl)pyrido[3′,2′:4,5]thieno[3,2-d]pyrimidine; 2,2,2-trifluoroacetic acid] | 3400 | 62.2 |  |  | 
13 | Cc1nnc2sc3c(C4CCNCC4)ncnc3c2c1C [Compound 19, 3,4-dimethyl-8-(piperidin-4-yl)pyrimido[4′,5′:4,5]thieno[2,3-c]pyridazine] | 4300 | 33.8 |  |  | 
14 | Cc1nnc2sc3c(CC(C)(C)C)ncnc3c2c1C [Compound 28, 3,4-dimethyl-8-neopentylpyrimido[4′,5′:4,5]thieno[2,3-c]pyridazine] |  | 75.6 |  |  | 
15 | Cc1nnc2sc3c(C4CC(F)(F)C4)ncnc3c2c1C [Compound 22, 8-(3,3-difluorocyclobutyl)-3,4-dimethylpyrimido[4′,5′:4,5]thieno[2,3-c]pyridazine] |  | 72.1 |  |  | 

Further compounds by falling EC50 (Human M4), results first:

Row | EC50 (Human M4) [nM] | Emax (Human M4) [%] | Structure (SMILES) | activity in animal models [1] | effect on psychotic behavioral symptoms [2] | elevated liver transaminases (hepatotoxicity), share of patients [3]
16 | 2800 | 58.1 | Cc1cc(C)c2c(n1)sc1c(C)ncnc12 [Compound 4, 4,7,9-trimethylpyrido[3′,2′:4,5]thieno[3,2-d]pyrimidine] |  |  | 
17 | 1900 | 58.2 | Cc1nnc2sc3c(C4CCN(C(=O)C5CCCO5)CC4)ncnc3c2c1C (stereo not shown) [Compound 27, (4-(3,4-dimethylpyrimido[4′,5′:4,5]thieno[2,3-c]pyridazin-8-yl)piperidin-1-yl)(tetrahydrofuran-2-yl)methanone] |  |  | 
18 | 1600 | 41.8 | Cc1cc(C)c2c(n1)sc1c(C3CCN(C4COC4)CC3)ncnc12 [Compound 21, 7,9-dimethyl-4-(1-(oxetan-3-yl)piperidin-4-yl)pyrido[3′,2′:4,5]thieno[3,2-d]pyrimidine] |  |  | 
19 | 1000 | 44 | Cc1cc(C)c2c(n1)sc1c(C3CCN(C(=O)C4CCCO4)CC3)ncnc12 (stereo not shown) [Compound 15, (4-(7,9-dimethylpyrido[3′,2′:4,5]thieno[3,2-d]pyrimidin-4-yl)piperidin-1-yl)(tetrahydrofuran-2-yl)methanone] |  |  | 
20 | 820 | 62 | Cc1cc(C)c2c(n1)sc1c(C3CCN(C(=O)C4(F)CC4)CC3)ncnc12 [Compound 12, (4-(7,9-dimethylpyrido[3′,2′:4,5]thieno[3,2-d]pyrimidin-4-yl)piperidin-1-yl)(1-fluorocyclopropyl)methanone] |  |  | 
21 | 620 | 43.5 | Cc1cc(C)c2c(n1)sc1c(C3CCN(C(=O)C4CC4)CC3)ncnc12 [Compound 11, cyclopropyl(4-(7,9-dimethylpyrido[3′,2′:4,5]thieno[3,2-d]pyrimidin-4-yl)piperidin-1-yl)methanone] |  |  | 
22 | 540 | 93.4 | CCCCc1ncnc2c1sc1nnc(C)c(C)c12 [Compound 29, 8-butyl-3,4-dimethylpyrimido[4′,5′:4,5]thieno[2,3-c]pyridazine] |  |  | 
23 | 520 | 72.3 | Cc1cc(C)c2c(n1)sc1c(C3CCN(C(=O)C4CCC4)CC3)ncnc12 [Compound 14, cyclobutyl(4-(7,9-dimethylpyrido[3′,2′:4,5]thieno[3,2-d]pyrimidin-4-yl)piperidin-1-yl)methanone] |  |  | 
24 | 510 | 67 | Cc1nnc2sc3c(C4CCCN(C=O)C4)ncnc3c2c1C (stereo not shown) [Compound 23, 3-(3,4-dimethylpyrimido[4′,5′:4,5]thieno[2,3-c]pyridazin-8-yl)piperidine-1-carbaldehyde] |  |  | 
25 | 490 | 39.1 | Cc1nnc2sc3c(C4CCN(C(=O)C5(F)CC5)CC4)ncnc3c2c1C [Compound 20, (4-(3,4-dimethylpyrimido[4′,5′:4,5]thieno[2,3-c]pyridazin-8-yl)piperidin-1-yl)(1-fluorocyclopropyl)methanone] |  |  | 
26 | 480 | 65.6 | Cc1cc(C)c2c(n1)sc1c(C3CCN(C=O)CC3)ncnc12 [Compound 7, 4-(7,9-dimethylpyrido[3′,2′:4,5]thieno[3,2-d]pyrimidin-4-yl)piperidine-1-carbaldehyde] |  |  | 
27 | 280 | 59.8 | Cc1nnc2sc3c(CCC4CCCCO4)ncnc3c2c1C (stereo not shown) [Compound 24, 3,4-dimethyl-8-(2-(tetrahydro-2H-pyran-2-yl)ethyl)pyrimido[4′,5′:4,5]thieno[2,3-c]pyridazine] |  |  | 
28 | 230 | 63 | Cc1cc(C)c2c(n1)sc1c(C3CCN(C(=O)C4(C)CC4)CC3)ncnc12 [Compound 13, (4-(7,9-dimethylpyrido[3′,2′:4,5]thieno[3,2-d]pyrimidin-4-yl)piperidin-1-yl)(1-methylcyclopropyl)methanone] |  |  | 
29 | 150 | 98.8 | Cc1cc(C)c2c(n1)sc1c(C3CCOCC3)ncnc12 [Compound 1, 7,9-Dimethyl-4-(tetrahydro-2H-pyran-4-yl)pyrido[3′,2′:4,5]thieno[3,2-d]pyrimidine] |  |  | 
30 | 140 | 73.5 | Cc1nnc2sc3c(C4CC4)ncnc3c2c1C [Compound 17, 8-cyclopropyl-3,4-dimethylpyrimido[4′,5′:4,5]thieno[2,3-c]pyridazine] |  |  | 
31 | 45 | 96.3 | Cc1nnc2sc3c(C4CCC(F)(F)CC4)ncnc3c2c1C [Compound 25, 8-(4,4-difluorocyclohexyl)-3,4-dimethylpyrimido[4′,5′:4,5]thieno[2,3-c]pyridazine] |  |  | 

Reference: patent US10961253B2, “Positive allosteric modulators of the muscarinic acetylcholine receptor M4” (Vanderbilt University, priority 2016, dated 2021)
